According to ChEMBL document CHEMBL5291721, “A preclinical secondary pharmacology resource illuminates target-adverse drug reaction associations of marketed drugs” (Nat Commun, 2023):

Key:
[1] = molecular target: T1, Alpha-1A adrenergic receptor (Homo sapiens, UniProt P35348); type: functional, cell-based
T1 sequence (P35348 whole entry): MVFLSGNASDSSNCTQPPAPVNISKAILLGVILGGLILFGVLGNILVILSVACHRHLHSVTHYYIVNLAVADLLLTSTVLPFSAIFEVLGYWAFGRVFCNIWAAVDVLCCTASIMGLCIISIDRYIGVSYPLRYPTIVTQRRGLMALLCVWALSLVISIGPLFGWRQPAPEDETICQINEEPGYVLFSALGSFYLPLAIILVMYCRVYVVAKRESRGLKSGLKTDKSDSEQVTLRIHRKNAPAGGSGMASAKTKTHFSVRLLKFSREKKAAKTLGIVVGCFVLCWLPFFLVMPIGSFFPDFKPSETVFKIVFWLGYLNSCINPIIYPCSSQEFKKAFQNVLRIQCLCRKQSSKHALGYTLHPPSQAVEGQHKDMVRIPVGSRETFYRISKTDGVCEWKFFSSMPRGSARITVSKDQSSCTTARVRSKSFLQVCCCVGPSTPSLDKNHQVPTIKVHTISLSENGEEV

Histamine H3 receptor = Histamine H3 receptor (Homo sapiens, UniProt Q9Y5N1)
Thromboxane A2 receptor = molecular target: T2, Thromboxane A2 receptor (Homo sapiens, UniProt P21731); type: functional, cell-based
T2 sequence (P21731 whole entry): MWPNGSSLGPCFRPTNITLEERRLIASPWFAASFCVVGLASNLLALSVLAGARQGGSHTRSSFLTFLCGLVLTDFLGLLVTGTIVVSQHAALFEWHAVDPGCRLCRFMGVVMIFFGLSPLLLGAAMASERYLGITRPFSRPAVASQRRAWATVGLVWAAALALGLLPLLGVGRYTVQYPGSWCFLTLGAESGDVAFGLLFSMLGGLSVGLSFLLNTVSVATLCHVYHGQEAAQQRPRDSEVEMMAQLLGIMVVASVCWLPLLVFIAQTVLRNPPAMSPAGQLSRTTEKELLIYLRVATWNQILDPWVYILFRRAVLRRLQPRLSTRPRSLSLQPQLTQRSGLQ

[2] = molecular target: T3, Gastrin/cholecystokinin type B receptor (Homo sapiens, UniProt P32239)
T3 sequence (P32239 whole entry): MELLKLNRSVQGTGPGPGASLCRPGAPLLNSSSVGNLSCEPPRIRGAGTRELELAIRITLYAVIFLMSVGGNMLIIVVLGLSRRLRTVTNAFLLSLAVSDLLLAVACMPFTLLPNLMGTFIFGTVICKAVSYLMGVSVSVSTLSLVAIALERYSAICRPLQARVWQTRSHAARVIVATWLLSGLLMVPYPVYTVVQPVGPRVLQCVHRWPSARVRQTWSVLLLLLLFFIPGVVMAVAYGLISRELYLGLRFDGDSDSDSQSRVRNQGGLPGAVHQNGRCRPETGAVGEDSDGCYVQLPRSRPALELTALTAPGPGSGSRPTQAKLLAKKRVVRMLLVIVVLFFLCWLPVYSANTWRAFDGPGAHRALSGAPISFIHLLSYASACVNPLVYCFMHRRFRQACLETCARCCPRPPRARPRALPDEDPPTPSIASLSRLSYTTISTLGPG

[3] = molecular target: T4, Neuropeptide Y receptor type 1 (Homo sapiens, UniProt P25929)
T4 sequence (P25929 whole entry): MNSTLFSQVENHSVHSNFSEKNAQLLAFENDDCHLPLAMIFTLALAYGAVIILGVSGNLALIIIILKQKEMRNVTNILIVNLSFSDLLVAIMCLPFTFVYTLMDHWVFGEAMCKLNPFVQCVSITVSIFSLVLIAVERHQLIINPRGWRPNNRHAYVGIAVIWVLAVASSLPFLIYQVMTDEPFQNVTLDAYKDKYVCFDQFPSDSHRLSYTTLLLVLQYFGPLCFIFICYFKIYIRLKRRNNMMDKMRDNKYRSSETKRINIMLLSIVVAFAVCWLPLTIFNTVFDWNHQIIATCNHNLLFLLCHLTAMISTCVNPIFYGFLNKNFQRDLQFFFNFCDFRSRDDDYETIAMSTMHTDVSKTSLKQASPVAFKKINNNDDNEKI

[4] = molecular target: Beta-2 adrenergic receptor (Homo sapiens, UniProt P07550)
Progesterone receptor = molecular target: T5, Progesterone receptor (Homo sapiens, UniProt P06401); type: functional
T5 sequence (P06401 whole entry): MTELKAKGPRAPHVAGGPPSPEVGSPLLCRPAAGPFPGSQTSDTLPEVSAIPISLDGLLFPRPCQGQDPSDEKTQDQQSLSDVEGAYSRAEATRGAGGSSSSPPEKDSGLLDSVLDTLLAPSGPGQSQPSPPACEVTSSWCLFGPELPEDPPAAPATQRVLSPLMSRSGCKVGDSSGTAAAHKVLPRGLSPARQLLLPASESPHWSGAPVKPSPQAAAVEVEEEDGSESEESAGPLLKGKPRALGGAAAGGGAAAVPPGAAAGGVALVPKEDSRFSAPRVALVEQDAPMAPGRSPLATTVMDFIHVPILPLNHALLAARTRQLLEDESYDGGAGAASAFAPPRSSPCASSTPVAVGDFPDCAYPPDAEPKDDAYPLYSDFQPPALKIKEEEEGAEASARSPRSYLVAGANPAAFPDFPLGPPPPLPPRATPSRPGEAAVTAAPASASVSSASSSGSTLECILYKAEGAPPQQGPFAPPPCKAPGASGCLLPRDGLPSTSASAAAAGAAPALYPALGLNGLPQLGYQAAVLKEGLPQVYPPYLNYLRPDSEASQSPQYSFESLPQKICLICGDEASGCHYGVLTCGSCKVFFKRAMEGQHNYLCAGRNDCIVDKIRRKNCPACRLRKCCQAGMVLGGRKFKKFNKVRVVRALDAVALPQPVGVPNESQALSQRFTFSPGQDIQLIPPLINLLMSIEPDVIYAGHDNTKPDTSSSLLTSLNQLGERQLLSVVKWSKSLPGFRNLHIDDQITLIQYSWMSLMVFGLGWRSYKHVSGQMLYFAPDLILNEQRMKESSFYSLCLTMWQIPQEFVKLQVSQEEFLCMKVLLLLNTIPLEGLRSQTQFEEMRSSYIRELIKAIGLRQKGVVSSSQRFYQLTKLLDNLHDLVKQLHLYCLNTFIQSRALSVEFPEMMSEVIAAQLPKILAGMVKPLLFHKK

[5] = molecular target: Muscarinic acetylcholine receptor M3 (Homo sapiens, UniProt P20309)
Cannabinoid receptor 1 = Cannabinoid receptor 1 (Homo sapiens, UniProt P21554); type: functional, cell-based
[6] = molecular target: T1, Alpha-1A adrenergic receptor; type: functional, cell-based; remark: listed apart in the source
Note: assay procedure not described here.

Chain of Cannabinoid receptor 1 (P21554 whole entry): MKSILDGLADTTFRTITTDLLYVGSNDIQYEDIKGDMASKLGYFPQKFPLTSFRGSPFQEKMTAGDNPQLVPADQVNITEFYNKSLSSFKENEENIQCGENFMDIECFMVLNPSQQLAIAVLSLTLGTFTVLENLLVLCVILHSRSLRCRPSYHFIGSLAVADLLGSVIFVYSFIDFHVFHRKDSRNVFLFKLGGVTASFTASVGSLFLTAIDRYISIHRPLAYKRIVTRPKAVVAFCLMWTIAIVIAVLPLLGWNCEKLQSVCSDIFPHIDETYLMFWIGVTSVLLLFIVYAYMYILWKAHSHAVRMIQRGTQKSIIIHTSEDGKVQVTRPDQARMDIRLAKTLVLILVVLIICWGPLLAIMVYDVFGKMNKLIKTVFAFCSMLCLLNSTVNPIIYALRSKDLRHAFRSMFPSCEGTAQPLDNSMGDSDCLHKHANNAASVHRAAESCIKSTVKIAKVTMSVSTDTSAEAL
Chain of Muscarinic acetylcholine receptor M3 (P20309 whole entry): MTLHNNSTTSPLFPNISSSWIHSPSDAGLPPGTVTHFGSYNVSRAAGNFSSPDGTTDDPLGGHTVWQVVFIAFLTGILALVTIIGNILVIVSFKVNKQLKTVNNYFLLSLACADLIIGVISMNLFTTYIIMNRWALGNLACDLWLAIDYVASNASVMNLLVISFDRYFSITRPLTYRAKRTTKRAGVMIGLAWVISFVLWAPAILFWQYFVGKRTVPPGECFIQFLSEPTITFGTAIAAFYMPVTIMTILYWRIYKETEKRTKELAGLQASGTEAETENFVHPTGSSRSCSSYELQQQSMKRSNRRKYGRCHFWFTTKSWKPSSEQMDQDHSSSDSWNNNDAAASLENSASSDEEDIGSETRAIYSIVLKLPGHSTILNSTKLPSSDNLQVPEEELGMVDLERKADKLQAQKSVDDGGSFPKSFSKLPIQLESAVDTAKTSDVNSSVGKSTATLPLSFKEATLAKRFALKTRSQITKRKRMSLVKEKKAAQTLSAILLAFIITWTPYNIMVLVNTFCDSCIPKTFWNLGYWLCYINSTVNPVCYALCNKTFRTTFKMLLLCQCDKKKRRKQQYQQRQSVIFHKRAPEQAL
Chain of Beta-2 adrenergic receptor (P07550 whole entry): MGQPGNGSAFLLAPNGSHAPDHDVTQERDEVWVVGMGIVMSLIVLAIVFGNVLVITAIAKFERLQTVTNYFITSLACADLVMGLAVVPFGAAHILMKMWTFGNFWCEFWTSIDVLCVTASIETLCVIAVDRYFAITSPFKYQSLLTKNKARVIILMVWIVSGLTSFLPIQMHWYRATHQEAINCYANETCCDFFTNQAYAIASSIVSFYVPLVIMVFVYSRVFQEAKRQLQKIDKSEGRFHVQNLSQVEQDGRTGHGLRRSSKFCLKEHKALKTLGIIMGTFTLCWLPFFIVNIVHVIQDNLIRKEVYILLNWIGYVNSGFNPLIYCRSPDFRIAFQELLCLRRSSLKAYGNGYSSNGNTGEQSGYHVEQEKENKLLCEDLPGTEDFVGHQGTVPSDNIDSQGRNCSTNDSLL
Chain of Histamine H3 receptor (Q9Y5N1 whole entry): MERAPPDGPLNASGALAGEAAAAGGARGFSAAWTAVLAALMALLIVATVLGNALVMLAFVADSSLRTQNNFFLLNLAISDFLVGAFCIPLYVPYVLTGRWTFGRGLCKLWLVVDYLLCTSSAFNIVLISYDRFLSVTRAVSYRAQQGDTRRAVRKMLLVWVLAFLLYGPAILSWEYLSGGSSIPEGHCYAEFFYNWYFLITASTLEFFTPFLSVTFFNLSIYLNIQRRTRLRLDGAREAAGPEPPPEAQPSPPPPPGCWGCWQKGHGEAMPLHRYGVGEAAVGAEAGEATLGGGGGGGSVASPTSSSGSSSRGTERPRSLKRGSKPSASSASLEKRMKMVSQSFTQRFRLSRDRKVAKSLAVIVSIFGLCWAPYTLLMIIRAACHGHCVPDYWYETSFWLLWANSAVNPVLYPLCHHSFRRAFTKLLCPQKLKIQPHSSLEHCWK

Row | SMILES | AC50 [1] [µM] | AC50 (Histamine H3 receptor) [µM] | AC50 (Thromboxane A2 receptor) [µM] | AC50 [2] [µM] | AC50 [3] [µM] | AC50 [4] [µM] | AC50 (Progesterone receptor) [µM] | AC50 [5] [µM] | AC50 (Cannabinoid receptor 1) [µM] | AC50 [6] [µM]
1 | C[C@@H](CN1CC(=O)NC(=O)C1)N1CC(=O)NC(=O)C1 [DEXRAZOXANE] | > 30 | > 30 | > 30 |  |  |  |  |  |  | 
2 | O=c1[nH]cc(F)c(=O)[nH]1 [FLUOROURACIL] | > 30 | > 30 | > 30 | > 30 | > 30 |  |  |  |  | 
3 | CCN(CCO)CCCC(C)Nc1ccnc2cc(Cl)ccc12 (stereo not given) [HYDROXYCHLOROQUINE] |  |  |  |  | > 10 | > 10 | > 10 |  |  | 
4 | CN1CC2c3ccccc3Oc3ccc(Cl)cc3C2C1 (stereo not given) [ASENAPINE] |  |  |  |  |  |  | > 30 | > 30 | > 30 | 0.0014
5 | NCCCNCCSP(=O)(O)O [AMIFOSTINE] |  |  |  | > 30 | > 30 | > 30 |  |  | > 30 | 
6 | CCOCC(O)COc1ccc(NC(=O)CC[S+](C)C)cc1 (stereo not given) |  |  |  |  |  |  | > 30 | > 30 | > 30 | > 30
7 | O=NN(CCCl)C(=O)NC1CCCCC1 [LOMUSTINE] | 14.1 | > 30 | > 30 |  |  |  |  |  |  | 
8 | NCCCCCC(=O)O [AMINOCAPROIC ACID] |  |  |  |  | > 10 | > 10 | > 10 |  |  | 
9 | C=CC1=C(C(=O)O)N2C(=O)[C@@H](NC(=O)/C(=N\O)c3csc(N)n3)[C@H]2SC1 |  |  |  | > 30 | > 30 | > 30 |  | > 30 | > 30 | > 30
10 | CCCCCCCCCCCCCCCC(=O)OC[C@H](COP(=O)([O-])OCC[N+](C)(C)C)OC(=O)CCCCCCCCCCCCCCC [COLFOSCERIL PALMITATE] | > 30 | > 30 | > 30 |  |  |  |  |  |  | 
11 | O=C(O)[C@H]1/C(=C/CO)O[C@@H]2CC(=O)N21 [CLAVULANIC ACID] |  |  |  |  |  |  | > 30 | > 30 | > 30 | > 30
12 | CCC[C@@]1(CCc2ccccc2)CC(O)=C([C@H](CC)c2cccc(NS(=O)(=O)c3ccc(C(F)(F)F)cn3)c2)C(=O)O1 |  |  |  |  |  |  | 13 | > 30 | > 30 | 4.7
13 | CC(C)(CO)c1cc2cc(NC(=O)C3(c4ccc5c(c4)OC(F)(F)O5)CC3)c(F)cc2n1C[C@@H](O)CO [TEZACAFTOR] |  |  |  |  |  |  | > 30 | > 30 | > 30 | > 10
14 | C[C@]12CCC(=O)C=C1CC[C@H]1[C@@H]3CC[C@](O)(C(=O)CO)[C@@]3(C)C[C@H](O)[C@@]12F [FLUDROCORTISONE] |  |  |  | > 30 | > 30 | > 10 |  | > 30 | > 30 | > 30
15 | C[C@H](CS)C(=O)N1CCC[C@H]1C(=O)O [CAPTOPRIL] |  |  |  | > 30 | > 30 | > 10 |  |  |  | > 30
16 | CCC1(c2ccccc2)C(=O)NCNC1=O [PRIMIDONE] |  |  |  |  | > 10 | > 10 | > 10 |  |  | 

Row | SMILES | AC50 [1] [µM] | AC50 (Histamine H3 receptor) [µM] | AC50 (Thromboxane A2 receptor) [µM] | AC50 [2] [µM] | AC50 [3] [µM] | AC50 [4] [µM] | AC50 (Progesterone receptor) [µM] | AC50 [5] [µM] | AC50 (Cannabinoid receptor 1) [µM] | AC50 [6] [µM]
17 | O=C(O)[C@@H](S)[C@@H](S)C(=O)O |  | > 30 | > 30 |  |  |  |  |  |  | 
18 | COc1cccc2c1C(=O)c1c(O)c3c(c(O)c1C2=O)C[C@@](O)(C(=O)CO)C[C@@H]3O[C@H]1C[C@H](N)[C@H](O[C@@H]2CCCCO2)[C@H](C)O1 [PIRARUBICIN] | > 1 | > 30 | > 10 |  |  |  |  |  |  | 
19 | CCOC(=O)Nc1ccc(NCc2ccc(F)cc2)nc1N [FLUPIRTINE] |  |  |  | > 30 | > 30 | > 30 |  | > 30 | > 30 | 
20 | c1cnc2cc3c(cc2n1)[C@@H]1CNC[C@H]3C1 [VARENICLINE] |  |  |  |  |  |  | > 30 | > 30 | > 30 | > 30
21 | O=C(O)COC(=O)Cc1ccccc1Nc1c(Cl)cccc1Cl [ACECLOFENAC] |  |  |  | > 30 | > 30 | > 10 |  |  | > 30 | > 30
22 | O=C(Cc1cccs1)N[C@@H]1C(=O)N2C(C(=O)[O-])=C(C[n+]3ccccc3)CS[C@H]12 [CEPHALORIDINE] |  | > 30 | > 30 |  |  |  |  | > 30 | > 30 | > 30
23 | C[C@H](CCC(=O)O)[C@H]1CC[C@H]2[C@@H]3[C@H](O)C[C@@H]4C[C@H](O)CC[C@]4(C)[C@H]3CC[C@]12C [CHENODIOL] |  |  |  |  |  |  |  | > 30 | > 30 | 19
24 | Nc1nnc(-c2cccc(Cl)c2Cl)c(N)n1 [LAMOTRIGINE] |  |  |  | > 30 | > 30 | > 10 |  |  |  | > 30
25 | C#CCN(C)Cc1ccccc1 [PARGYLINE] |  | > 30 | > 30 |  |  |  |  | > 30 | > 30 | > 30
26 | O=C(c1ccccc1)c1ccc2n1CCC2C(=O)O (stereo not given) [KETOROLAC] |  |  |  |  | > 10 | > 10 | > 10 |  |  | > 30
27 | CCOc1ccccc1OCCN[C@H](C)Cc1ccc(OC)c(S(N)(=O)=O)c1 [TAMSULOSIN] |  |  |  | > 30 | > 30 | 2.2 |  | > 30 |  | 
28 | OCCOCCN1CCN(C(c2ccccc2)c2ccc(Cl)cc2)CC1 (stereo not given) [HYDROXYZINE] |  |  |  | > 30 | > 30 | > 10 |  | > 10 | > 30 | 9.67
29 | CC(C)NCC(O)COc1ccc(CC(N)=O)cc1 (stereo not given) [ATENOLOL] |  |  |  | > 30 | > 30 |  | > 30 |  |  | > 30
30 | COC(=O)CCc1ccc(OCC(O)CNC(C)C)cc1 (stereo not given) [ESMOLOL] |  |  |  | > 30 | > 30 | 27 | > 30 |  |  | > 30
31 | CO[C@@]1(NC(=O)C(C(=O)O)c2ccc(O)cc2)C(=O)N2C(C(=O)O)=C(CSc3nnnn3C)CO[C@@H]21 (stereo not given in full) [MOXALACTAM] | > 30 | > 30 | > 30 |  |  |  |  |  |  | 
